This note sets out measurements from ChEMBL document CHEMBL1201862, “PubChem BioAssay data set” (2004).

Each structure is given as a SMILES string. Active and inactive are the calls of the source.

Assay [1] deals with Endoplasmic reticulum aminopeptidase 1 (Homo sapiens, UniProt Q9NZ08). Put plainly: inhibition of human ERAP1 enzyme activity – biochemical, cherry-pick, set 2, plate reader, dose response (AID 743314).
Assay [2] is described as follows: Late stage assay provider results from the probe development effort to identify selective inhibitors of heat shock protein 90 (HSP90): Absorbance-based cell proliferation assay in MCF7 cells. The format is functional.
Assay [3] can be described thus: Late stage assay provider results from the probe development effort to identify selective inhibitors of heat shock protein 90 (HSP90): Absorbance-based cell proliferation assay in SKBR3 cells. The format is functional. As to conditions: SK-BR-3.
For assay [4], the target named is Mitogen-activated protein kinase 10 (Homo sapiens, UniProt P53779). The experiment in a line: Dose response biochemical screening assay for inhibitors of c-Jun N-Terminal Kinase 3 (JNK3). [Related pubchem assays: 746 ].
Sequence of Mitogen-activated protein kinase 10 (P53779 whole entry): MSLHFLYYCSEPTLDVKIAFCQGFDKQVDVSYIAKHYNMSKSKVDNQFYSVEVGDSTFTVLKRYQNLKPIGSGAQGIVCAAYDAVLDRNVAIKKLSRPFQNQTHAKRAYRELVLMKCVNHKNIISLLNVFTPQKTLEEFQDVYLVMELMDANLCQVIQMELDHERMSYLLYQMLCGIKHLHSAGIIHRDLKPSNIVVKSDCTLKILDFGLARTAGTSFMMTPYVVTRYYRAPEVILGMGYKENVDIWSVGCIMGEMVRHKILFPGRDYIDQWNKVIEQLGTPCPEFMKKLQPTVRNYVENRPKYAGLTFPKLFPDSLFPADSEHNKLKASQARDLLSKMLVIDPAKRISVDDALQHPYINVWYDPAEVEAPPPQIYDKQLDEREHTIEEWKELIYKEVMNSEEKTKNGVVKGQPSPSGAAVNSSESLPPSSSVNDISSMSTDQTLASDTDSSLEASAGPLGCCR
Assay [5] in a line: anti-trypanosomal activity in BESM host cells – imaging, CA-I/72 strain, bovine embryo skeletal muscle, dry powder, dose response (AID 651885). The format is functional, cell-based.
A short description of assay [6]: mouse embryonic fibroblast toxicity – cell-based, plate reader, dry powder, set 2, cytotoxicity control, dose response (AID 652280). Type of assay: functional. As to conditions: NIH3T3.
Assay [7] in a line: T. cruzi growth inhibition in host cells, dose response, cell-based, plate reader, dry powder, set 2 (AID 652275). The format is functional.
Assay [8] can be described thus: viability inhibitors of stage V gametocytes – luminescence, dose response (AID 1117278).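 Further: gametocytes exposed to compound for 24 hours.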 The format is functional, cell-based.
Assay [9] can be described thus: viability loss in human Jurkat cells – cell-based, luminescence, cytotoxicity control for P. falciparum gametocyte viability project, dose response (AID 1117277).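 Further: potency reflects loss of cellular ATP meaning fewer viable cells.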 The format is functional.
The target of assay [10] is T1, Corticotropin-releasing factor receptor 2/Corticotropin-releasing factor-binding protein (Homo sapiens, UniProt P24387+Q13324).
T1 sequence (Q13324 whole entry): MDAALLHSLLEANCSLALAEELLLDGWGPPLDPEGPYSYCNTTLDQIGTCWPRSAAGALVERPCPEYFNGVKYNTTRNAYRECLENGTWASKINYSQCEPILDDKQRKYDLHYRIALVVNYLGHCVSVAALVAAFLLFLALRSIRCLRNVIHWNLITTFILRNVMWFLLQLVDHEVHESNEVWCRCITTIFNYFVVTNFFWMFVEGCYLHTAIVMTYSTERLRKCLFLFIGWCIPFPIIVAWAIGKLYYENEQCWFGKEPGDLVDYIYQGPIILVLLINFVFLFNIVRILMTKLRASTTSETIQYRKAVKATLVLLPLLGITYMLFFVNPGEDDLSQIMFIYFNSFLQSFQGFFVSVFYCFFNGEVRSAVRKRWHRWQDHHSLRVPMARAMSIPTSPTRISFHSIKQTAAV
T1 sequence (P24387 whole entry): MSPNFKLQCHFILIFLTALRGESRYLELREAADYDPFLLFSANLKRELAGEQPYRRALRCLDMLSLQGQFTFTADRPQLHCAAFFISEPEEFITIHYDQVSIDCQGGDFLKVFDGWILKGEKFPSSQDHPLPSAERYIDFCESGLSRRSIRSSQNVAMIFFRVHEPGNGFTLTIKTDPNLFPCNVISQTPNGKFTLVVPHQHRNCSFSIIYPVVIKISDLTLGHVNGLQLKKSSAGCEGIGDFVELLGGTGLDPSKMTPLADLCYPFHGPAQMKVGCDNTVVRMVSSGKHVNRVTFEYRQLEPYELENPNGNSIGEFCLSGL
The experiment in a line: Dose Response confirmation of uHTS hits for small molecule antagonists of the CRF-binding protein and CRF-R2 receptor complex. Type of assay: functional. To be noted: read-out: IC50_Mean.

The target of assay [11] is T1, Corticotropin-releasing factor receptor 2/Corticotropin-releasing factor-binding protein. The experiment in a line: activators of CRF receptor 2 with binding protein – uHTS hits, confirmation (AID 602473). Type of assay: functional. As to conditions: read-out: EC50_Mean.
Another assay concerns the target Caspase-6 (Homo sapiens, UniProt P55212). Put plainly: inhibition of CASP6 peptide cleavage – biochemical, VEID-R110 fluorescence, cherry-pick, dose response (AID 720632).
The target in assay [12] is Photoreceptor-specific nuclear receptor (Homo sapiens, UniProt Q9Y5X4). Type of assay: functional, cell-based.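 Further: CHO-S cells with Gal4-NCOR and VP16-NR2E3 two-hybrid luciferase reporter.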
Sequence of Photoreceptor-specific nuclear receptor (Q9Y5X4 whole entry, the tested form may be a part): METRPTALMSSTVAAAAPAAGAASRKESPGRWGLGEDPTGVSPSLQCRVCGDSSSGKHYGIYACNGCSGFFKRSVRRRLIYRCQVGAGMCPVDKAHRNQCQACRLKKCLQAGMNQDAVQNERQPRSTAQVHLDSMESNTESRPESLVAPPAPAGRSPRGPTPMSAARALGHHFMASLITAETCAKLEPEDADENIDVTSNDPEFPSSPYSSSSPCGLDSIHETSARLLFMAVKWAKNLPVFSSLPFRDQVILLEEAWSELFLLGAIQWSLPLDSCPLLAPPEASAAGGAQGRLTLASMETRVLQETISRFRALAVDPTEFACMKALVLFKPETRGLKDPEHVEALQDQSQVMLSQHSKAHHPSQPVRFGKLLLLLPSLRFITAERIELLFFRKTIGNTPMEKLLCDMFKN
The nature of assay [13]: blockers of CRF-binding protein–CRF-R2 complex – cell-based, uHTS hits, 384-well, dose response (AID 651639). To be noted: read-out: IC50_Mean. Type of assay: functional, Homo sapiens.
Assay [14] can be described thus: general mammalian cell viability loss – inhibitor set, cherry-pick, set 2, cytotoxicity control for miR-122 modulator project, dose response (AID 720697). The format is functional, cell-based.
Assay [15] in a line: general mammalian cell viability loss – activator set, cherry-pick, cytotoxicity control for miR-122 modulator project, dose response (AID 720690).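 Further: HEK293T human cells scored for general mammalian cytotoxicity.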 Type of assay: functional, cell-based.
Assay [16] in a line: viability loss in A549 lung cancer cells – cell-based, cherry-picks, […], cytotoxicity control, dose response (AID 1053119). Type of assay: functional.
A short description of assay [17]: viability loss in HepG2 hepatoma cells – cell-based, cherry-picks, set 5, cytotoxicity control, dose response (AID 1053118). Type of assay: functional.
Assay [18] can be described thus: viability loss in HEK293 kidney cells – cell-based, cherry-picks, set 5, cytotoxicity control, dose response (AID 1053117). The format is functional.
The next assay deals with HeLa. The experiment in a line: viability loss in HeLa cells – cell-based, ATP luminescence, cherry-pick samples, cytotoxicity control, dose response (AID 687004). Type of assay: functional. As to conditions: Homo sapiens.
The nature of assay [19]: A2780 cell killing – plate reader, dry powder samples, cytotoxicity control, dose response (AID 743046). Type of assay: functional, cell-based.
Assay [20] is described as follows: OVCAR-3 cell viability loss – plate reader, dry powder samples, PAX8 inhibitor project, dose response (AID 743044). The format is functional, cell-based.
Assay [21] in a line: reduced cellular PGC1a acetyl-lysine signal – cell-based, cherry-picked samples, dose response (AID 720514).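 Further: potency may reflect raised or lowered acetylation signal.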 The format is functional.
Assay [22] is described as follows: toxicity toward immortalized ovarian surface epithelium – cell-based, plate reader, dry powder samples, cytotoxicity control for PAX8 inhibitor project, dose response (AID 743045). The format is functional.
The next assay deals with Paired box protein Pax-8 (Homo sapiens, UniProt Q06710). Put plainly: PAX8 transcriptional activity inhibition in RMG-I – RMG-I cells, luciferase, cherry-pick, dose response (AID 687027).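 Further: luciferase reporter driven by Pax8 target thyroperoxidase promoter measured by SteadyGlo luminescence.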 The format is functional, cell-based.
Sequence of Paired box protein Pax-8 (Q06710 whole entry): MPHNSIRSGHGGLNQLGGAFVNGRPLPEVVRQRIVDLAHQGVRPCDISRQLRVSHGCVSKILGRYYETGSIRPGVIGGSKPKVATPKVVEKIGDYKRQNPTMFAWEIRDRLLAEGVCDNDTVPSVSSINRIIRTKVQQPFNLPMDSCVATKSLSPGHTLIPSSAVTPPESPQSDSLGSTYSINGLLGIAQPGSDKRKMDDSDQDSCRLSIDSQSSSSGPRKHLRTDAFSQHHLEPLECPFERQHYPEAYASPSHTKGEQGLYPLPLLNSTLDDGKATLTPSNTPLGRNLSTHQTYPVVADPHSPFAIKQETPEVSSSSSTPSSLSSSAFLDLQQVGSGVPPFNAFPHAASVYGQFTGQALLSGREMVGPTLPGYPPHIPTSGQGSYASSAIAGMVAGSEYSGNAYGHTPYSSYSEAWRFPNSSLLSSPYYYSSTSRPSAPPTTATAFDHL
Assay [23] in a line: COV434 cell viability loss – plate reader, dry powder, SA7, cytotoxicity control for PAX8 inhibitor project, dose response (AID 743145). The format is functional, cell-based.
Assay [24] can be described thus: general cell-killing toxicity readout – plate reader, dry powder samples, cytotoxicity control for PAX8 inhibitor project, dose response (AID 743021). Type of assay: functional, cell-based.
Assay [25] in a line: OVCAR4 cell viability loss – plate reader, dry powder, SA11, cytotoxicity control for PAX8 inhibitor project, dose response (AID 743150). Type of assay: functional, cell-based. As to conditions: OVCAR-4.
Assay [26] is described as follows: IGROV1 cell killing – plate reader, dry powder samples, PAX8 inhibitor project, dose response (AID 743043). Type of assay: functional, cell-based. To be noted: IGROV-1.
Assay [27] can be described thus: COV362 cell viability loss – plate reader, dry powder, SA12, cytotoxicity control for PAX8 inhibitor project, dose response (AID 743144). The format is functional, cell-based.
A short description of assay [28]: PAX8-dependent cell viability loss – plate reader, dry powder, dose response (AID 743049). The format is functional, cell-based.
Assay [29] can be described thus: OVCAR8 cell viability loss – plate reader, dry powder samples, PAX8 project, dose response (AID 743197). To be noted: OVCAR-8. The format is functional, cell-based.
The nature of assay [30]: OV-90 cell viability loss – plate reader, dry powder, SA8, PAX8 inhibitor project, dose response (AID 743149). Type of assay: functional, cell-based.

For orientation: AC50 means the midpoint of the concentration-response curve, whichever way the signal moves.

Sequence of Endoplasmic reticulum aminopeptidase 1 (Q9NZ08 whole entry): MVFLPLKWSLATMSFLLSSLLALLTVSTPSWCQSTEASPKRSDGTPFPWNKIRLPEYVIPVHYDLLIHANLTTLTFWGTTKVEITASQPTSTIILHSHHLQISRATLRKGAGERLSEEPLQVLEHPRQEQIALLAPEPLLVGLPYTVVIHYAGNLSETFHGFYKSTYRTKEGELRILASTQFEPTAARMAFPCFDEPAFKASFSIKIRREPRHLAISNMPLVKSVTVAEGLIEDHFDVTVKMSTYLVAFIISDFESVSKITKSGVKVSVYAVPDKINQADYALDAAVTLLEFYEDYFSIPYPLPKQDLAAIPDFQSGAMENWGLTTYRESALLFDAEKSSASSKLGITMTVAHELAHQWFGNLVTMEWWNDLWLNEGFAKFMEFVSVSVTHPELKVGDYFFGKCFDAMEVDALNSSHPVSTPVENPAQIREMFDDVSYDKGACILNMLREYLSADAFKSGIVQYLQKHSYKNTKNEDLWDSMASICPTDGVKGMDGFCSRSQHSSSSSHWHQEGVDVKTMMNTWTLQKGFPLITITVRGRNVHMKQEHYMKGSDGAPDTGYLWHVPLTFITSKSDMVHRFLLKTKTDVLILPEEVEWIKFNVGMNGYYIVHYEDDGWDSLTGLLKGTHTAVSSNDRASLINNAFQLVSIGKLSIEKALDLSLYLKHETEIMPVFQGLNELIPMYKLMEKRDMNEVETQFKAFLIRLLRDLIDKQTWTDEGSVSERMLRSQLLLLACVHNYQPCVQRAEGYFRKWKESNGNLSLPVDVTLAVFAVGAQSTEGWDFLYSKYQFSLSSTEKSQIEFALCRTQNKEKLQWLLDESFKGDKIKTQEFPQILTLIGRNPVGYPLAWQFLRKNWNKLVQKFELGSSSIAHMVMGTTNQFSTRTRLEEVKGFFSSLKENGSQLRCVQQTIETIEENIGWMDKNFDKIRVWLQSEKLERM
Sequence of Caspase-6 (P55212 24-179 limits assumed): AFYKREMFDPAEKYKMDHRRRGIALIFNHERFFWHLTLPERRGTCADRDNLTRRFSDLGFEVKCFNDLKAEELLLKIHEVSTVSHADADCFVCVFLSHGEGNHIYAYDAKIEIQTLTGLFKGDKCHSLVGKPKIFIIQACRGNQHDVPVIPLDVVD
Sequence of Caspase-6 (P55212 194-293 limits assumed): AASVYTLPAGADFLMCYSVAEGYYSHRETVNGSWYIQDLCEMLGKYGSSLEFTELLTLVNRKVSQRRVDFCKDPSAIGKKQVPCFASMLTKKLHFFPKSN

Regarding `CCNC(=O)[C@H]1[C@H](CO)[C@H]2Cn3c(ccc(/C=C/c4ccccc4)c3=O)[C@@H]1N2`, in assay [1], the AC50 is 11.3 µM (active).
For the molecule `O=C1OC(=O)/C(=C\NCCC2=CCCCC2)C=C1Br`, the IC50 in assay [2] was 3 µM (active); in assay [3], 8 µM (active).
In the case of `CC(=O)Oc1ccc(C(=O)Nc2nccs2)cc1`, in assay [4], the IC50 is > 31 µM (not active).
For `C[C@@H]1CN([C@@H](C)CO)C(=O)c2cc(-c3cccnc3)cnc2O[C@H]1CN(C)Cc1ccc(Oc2ccccc2)cc1`, the IC50 in assay [5] was > 20 µM (inactive). Moreover, the concentration at half-maximal activity (AC50) in assay [6] is 11.9 µM (active); in assay [7], 1.95 µM (active).
As to `Cc1nccc(O)c1OCc1ccc(Cl)cc1`, the IC50 was > 109 µM (inactive) in [8] and > 83.3 µM (inactive) in assay [9].
Consider `CC(C)c1ccc(C(c2c(O)oc3ccccc3c2=O)c2c(O)oc3ccccc3c2=O)cc1`, for which the figures for the IC50 in assay [10], in assay [12] and in [13] were 3.45 µM (active), 0.975 µM (active) and 5.18 µM (active), respectively. In assay [11], the EC50 is > 53 µM (inactive). Also, the AC50 at Caspase-6 was 6.05 µM (active).
`CN1C(=O)c2cc(NS(=O)(=O)c3cccc(F)c3)ccc2OC[C@@H]2O[C@@H](CC(=O)NCCN3CCCCC3)CC[C@H]21`: the AC50 in assay [14] was 0.254 µM (active); in [15], 26.1 µM (active).
`CO[C@H]1CN(C)C(=O)c2cc(NC(=O)Nc3ccc(Cl)c(Cl)c3)ccc2OC[C@H](C)NC[C@@H]1C`: the half-maximal activity concentration (AC50) is 12.9 µM (active) in assay [16], 13 µM (active) in [17] and 12.8 µM (active) in assay [18].
As to `CC(C)NC(=O)Nc1ccc2c(c1)CC(=O)N([C@H](C)CO)C[C@H](C)[C@H](CN(C)S(=O)(=O)c1ccc(Cl)cc1)O2`, the AC50 in the assay with HeLa is 37.9 µM (active).
With `CN(C[C@H]1N[C@@H](CO)[C@@H]1c1ccc(C2=CCCC2)cc1)C(=O)c1cccc(F)c1`, the AC50 is 11.3 µM (active) in assay [19]; 4.55 µM (active) in assay [20]; 0.298 µM (active) in [21]; 3.44 µM (active) in assay [22]; 2.47 µM (active) at Paired box protein Pax-8; 6.6 µM (active) in assay [23]. Also, the concentration at half-maximal activity (AC50) in assay [24] is 26 µM (active); in assay [25], 1.37 µM (active); in [26] it was 6.12 µM (active); in assay [27], 3.98 µM (active); in assay [28], 3.86 µM (active); in assay [29] it was 3.4 µM (active). Also, in assay [30], the AC50 is 7.38 µM (active).
